# Assay results taken from US20020035061A1, “COMPOSITIONS AND METHODS FOR TREATING INFECTIONS USING CATIONIC PEPTIDES ALONE OR IN COMBINATION WITH ANTIBIOTICS” (priority 1996, published 2002).
# Test system: bacterial isolates
# Test: microbe, parasite or virus in culture
# Type: cell-based
sequence,measurement,setting,value
KWKSFIKKLTSAAKKVVTTAKPLISS [MBI 26],Peptide MIC Alone,"P. aeruginosa PA4, Mupirocin section",>128 µg/mL
same,Ceftriaxone MIC + Peptide,P. aeruginosa PA008,8 µg/mL
same,Peptide MIC + Ceftriaxone,P. aeruginosa PA008,0.125 µg/mL
same,Ceftriaxone MIC + Peptide,P. aeruginosa PA024,4 µg/mL
same,Peptide MIC + Ceftriaxone,P. aeruginosa PA024,32 µg/mL
same,Gentamicin MIC + Peptide,P. aeruginosa PA041,1 µg/mL
same,Peptide MIC + Gentamicin,P. aeruginosa PA041,32 µg/mL
same,Ciprofloxacin MIC + Peptide,P. aeruginosa PA41,1 µg/mL
same,Peptide MIC + Ciprofloxacin,P. aeruginosa PA41,32 µg/mL
same,Ciprofloxacin MIC + Peptide,P. aeruginosa PA77,0.125 µg/mL
same,Peptide MIC + Ciprofloxacin,P. aeruginosa PA77,64 µg/mL
same,Peptide MIC + Piperacillin,S. aureus 19 MRSA,1 µg/mL
same,Piperacillin MIC + Peptide,S. aureus 19 MRSA,16 µg/mL
same,Peptide MIC Alone,"S. aureus 19 MRSA, Piperacillin section",32 µg/mL
same,Ciprofloxacin MIC + Peptide,S. aureus SA11,32 µg/mL
same,Peptide MIC + Ciprofloxacin,S. aureus SA11,0.125 µg/mL
same,Ceftriaxone MIC + Peptide,S. aureus SA025 MRSA,0.125 µg/mL
same,Peptide MIC + Ceftriaxone,S. aureus SA025 MRSA,0.5 µg/mL
same,FIC,"S. aureus SA044, combination with Ciprofloxacin",0.63
same,FIC,"S. aureus SA7609, combination with Clindamycin",0.25
same,FIC,"S. aureus SA7609, combination with Methicillin",0.56
same,FIC,"S. aureus SA7610, combination with Clindamycin",0.63
same,FIC,"S. aureus SA7610, combination with Methicillin",0.31
same,FIC,"S. aureus SA7795, combination with Ampicillin",0.52
same,FIC,"S. aureus SA7795, combination with Clindamycin",0.53
same,FIC,"S. aureus SA7796, combination with Ampicillin",1.00
same,FIC,"S. aureus SA7796, combination with Clindamycin",0.51
same,FIC,"S. aureus SA7817, combination with Ampicillin",0.50
same,FIC,"S. aureus SA7818, combination with Ampicillin",1.00
same,FIC,"S. aureus SA7818, combination with Erythromycin",0.15
same,FIC,"S. aureus SA7821, combination with Erythromycin",0.50
same,FIC,"S. aureus SA7822, combination with Ampicillin",0.25
same,FIC,"S. aureus SA7823, combination with Ampicillin",0.25
same,FIC,"S. aureus SA7824, combination with Ampicillin",1.00
same,FIC,"S. aureus SA7825, combination with Ampicillin",1.00
same,FIC,"S. aureus SA7825, combination with Erythromycin",1.00
same,FIC,"S. aureus SA7834, combination with Ampicillin",0.53
same,FIC,"S. aureus SA7834, combination with Clindamycin",0.56
same,FIC,"S. aureus SA7835, combination with Ampicillin",0.53
same,FIC,"S. aureus SA7836, combination with Ampicillin",0.75
same,FIC,"S. aureus SA7837, combination with Ampicillin",1.00
same,FIC,"S. aureus SAATCC25293, combination with Methicillin",0.50
same,FIC,"S. aureus SAATCC29213, combination with Methicillin",0.31
same,FIC,"S. aureus SAW1133, combination with Methicillin",0.75
same,Peptide MIC + Piperacillin,S. aureus SB3MRSA,16 µg/mL
same,Piperacillin MIC + Peptide,S. aureus SB3MRSA,64 µg/mL
same,Peptide MIC Alone,"S. aureus SB3MRSA, Piperacillin section",>128 µg/mL
same,Mupirocin MIC + Peptide,S. aureus SBSA4,30 µg/mL
same,Peptide MIC + Mupirocin,S. aureus SBSA4,8 µg/mL
same,Peptide MIC Alone,"S. aureus SBSA4, Mupirocin section",32 µg/mL
same,Ceftriaxone MIC + Peptide,S. epidermidis SE007,2 µg/mL
same,Peptide MIC + Ceftriaxone,S. epidermidis SE007,0.5 µg/mL
same,Ceftriaxone MIC + Peptide,S. epidermidis SE012,16 µg/mL
same,Peptide MIC + Ceftriaxone,S. epidermidis SE012,1 µg/mL
same,Peptide MIC + Tobramycin,S. epidermidis SE067,0.25 µg/mL
same,Peptide MIC Alone,S. epidermidis SE067,2 µg/mL
same,Tobramycin MIC + Peptide,S. epidermidis SE067,64 µg/mL
same,Peptide MIC + Tobramycin,S. epidermidis SE068,0.5 µg/mL
same,Peptide MIC Alone,S. epidermidis SE068,2 µg/mL
same,Tobramycin MIC + Peptide,S. epidermidis SE068,4 µg/mL
same,FIC,"S. epidermidis SE8406, combination with Clindamycin",0.50
same,FIC,"S. epidermidis SE8416, combination with Clindamycin",0.56
same,FIC,"S. epidermidis SE8505, combination with Ampicillin",1.00
same,FIC,"S. epidermidis SE8565, combination with Ampicillin",1.00
same,FIC,"S. haemolyticus SH8459, combination with Ampicillin",0.52
same,FIC,"S. haemolyticus SH8472, combination with Ampicillin",0.56
same,FIC,"S. haemolyticus SH8563, combination with Ampicillin",0.75
same,FIC,"S. haemolyticus SH8564, combination with Ampicillin",0.62
same,FIC,"S. haemolyticus SH8575, combination with Ampicillin",0.75
same,FIC,"S. haemolyticus SH8576, combination with Ampicillin",0.62
same,FIC,"S. haemolyticus SH8578, combination with Ampicillin",1.00
same,Peptide MIC + Piperacillin,S. maltophilia 3,4 µg/mL
same,Piperacillin MIC + Peptide,S. maltophilia 3,32 µg/mL
same,Peptide MIC Alone,"S. maltophilia 3, Piperacillin section",16 µg/mL
same,Ciprofloxacin MIC + Peptide,S. maltophilia 34,0.25 µg/mL
same,Peptide MIC + Ciprofloxacin,S. maltophilia 34,8 µg/mL
same,Peptide MIC + Piperacillin,S. maltophilia 34,16 µg/mL
same,Piperacillin MIC + Peptide,S. maltophilia 34,4 µg/mL
same,Peptide MIC Alone,"S. maltophilia 34, Piperacillin section",>32 µg/mL
same,Ciprofloxacin MIC + Peptide,S. maltophilia 35,0.5 µg/mL
same,Peptide MIC + Ciprofloxacin,S. maltophilia 35,16 µg/mL
same,Peptide MIC + Piperacillin,S. maltophilia 35,16 µg/mL
same,Piperacillin MIC + Peptide,S. maltophilia 35,4 µg/mL
same,Peptide MIC Alone,"S. maltophilia 35, Piperacillin section",>32 µg/mL
same,Gentamicin MIC + Peptide,S. maltophilia SMA016,32 µg/mL
same,Peptide MIC + Gentamicin,S. maltophilia SMA016,32 µg/mL
same,Gentamicin MIC + Peptide,S. maltophilia SMA017,16 µg/mL
same,Peptide MIC + Gentamicin,S. maltophilia SMA017,2 µg/mL
same,Ceftriaxone MIC + Peptide,S. maltophilia SMA019,64 µg/mL
same,Peptide MIC + Ceftriaxone,S. maltophilia SMA019,1 µg/mL
same,Ceftriaxone MIC + Peptide,S. maltophilia SMA020,32 µg/mL
same,Peptide MIC + Ceftriaxone,S. maltophilia SMA020,1 µg/mL
same,Amikacin MIC + Peptide,S. maltophilia SMA021,8 µg/mL
same,Peptide MIC + Amikacin,S. maltophilia SMA021,2 µg/mL
same,Peptide MIC + Tobramycin,S. maltophilia SMA029,4 µg/mL
same,Peptide MIC Alone,S. maltophilia SMA029,>128 µg/mL
same,Tobramycin MIC + Peptide,S. maltophilia SMA029,4 µg/mL
same,Peptide MIC + Tobramycin,S. maltophilia SMA030,4 µg/mL
same,Peptide MIC Alone,S. maltophilia SMA030,>128 µg/mL
same,Tobramycin MIC + Peptide,S. maltophilia SMA030,4 µg/mL
same,Amikacin MIC + Peptide,S. maltophilia SMA037,16 µg/mL
same,Peptide MIC + Amikacin,S. maltophilia SMA037,16 µg/mL
same,Peptide MIC + Piperacillin,S. marcescens 1,0.5 µg/mL
same,Piperacillin MIC + Peptide,S. marcescens 1,32 µg/mL
same,Peptide MIC Alone,"S. marcescens 1, Piperacillin section",>128 µg/mL
same,FIC,"peptide + Amikacin, A. baumannii ABI001",0.50
same,FIC,"peptide + Amikacin, A. baumannii ABI003",0.38
same,FIC,"peptide + Amikacin, S. maltophilia SMA021",0.13
same,FIC,"peptide + Amikacin, S. maltophilia SMA037",0.19
same,FIC,"peptide + Ceftriaxone, A. baumannii ABI002",0.50
same,FIC,"peptide + Ceftriaxone, A. baumannii ABI005",0.56
same,FIC,"peptide + Ceftriaxone, B. cepacia BC003",0.50
same,FIC,"peptide + Ceftriaxone, E. cloacae ECL014",0.50
same,FIC,"peptide + Ceftriaxone, E. cloacae ECL015",0.19
same,FIC,"peptide + Ceftriaxone, K. pneumoniae KP003",0.56
same,FIC,"peptide + Ceftriaxone, P. aeruginosa PA008",0.13
same,FIC,"peptide + Ceftriaxone, P. aeruginosa PA024",0.50
same,FIC,"peptide + Ceftriaxone, S. aureus SA025 MRSA",0.52
same,FIC,"peptide + Ceftriaxone, S. epidermidis SE007",0.27
same,FIC,"peptide + Ceftriaxone, S. epidermidis SE012",0.27
same,FIC,"peptide + Ceftriaxone, S. maltophilia SMA019",0.50
same,FIC,"peptide + Ceftriaxone, S. maltophilia SMA020",0.38
same,FIC,"peptide + Ciprofloxacin, A. calcoaceticus 1",0.51
same,FIC,"peptide + Ciprofloxacin, A. calcoaceticus 6",0.50
same,FIC,"peptide + Ciprofloxacin, E. cloacae 13",0.27
same,FIC,"peptide + Ciprofloxacin, E. cloacae 15",0.38
same,FIC,"peptide + Ciprofloxacin, E. cloacae 16",0.38
same,FIC,"peptide + Ciprofloxacin, P. aeruginosa 23",0.53
same,FIC,"peptide + Ciprofloxacin, P. aeruginosa 24",0.53
same,FIC,"peptide + Ciprofloxacin, P. aeruginosa PA41",0.50
same,FIC,"peptide + Ciprofloxacin, P. aeruginosa PA77",0.56
same,FIC,"peptide + Ciprofloxacin, S. aureus SA11",0.50
same,FIC,"peptide + Ciprofloxacin, S. maltophilia 34",0.25
same,FIC,"peptide + Ciprofloxacin, S. maltophilia 35",0.50
same,FIC,"peptide + Gentamicin, A. baumannii ABI001",0.50
same,FIC,"peptide + Gentamicin, A. baumannii ABI002",0.53
same,FIC,"peptide + Gentamicin, P. aeruginosa PA041",0.63
same,FIC,"peptide + Gentamicin, S. maltophilia SMA016",0.25
same,FIC,"peptide + Gentamicin, S. maltophilia SMA017",0.38
same,FIC,"peptide + Mupirocin, E. coli ECO5",0.43
same,FIC,"peptide + Mupirocin, E. coli SBECO2",0.16
same,FIC,"peptide + Mupirocin, P. aeruginosa PA2",0.51
same,FIC,"peptide + Mupirocin, P. aeruginosa PA4",0.23
same,FIC,"peptide + Mupirocin, S. aureus SBSA4",0.28
same,FIC,"peptide + Piperacillin, A. calcoaceticus 7",0.25
same,FIC,"peptide + Piperacillin, A. calcoaceticus 8",0.19
same,FIC,"peptide + Piperacillin, E. cloacae 13",0.16
same,FIC,"peptide + Piperacillin, H. influenzae 1",0.53
same,FIC,"peptide + Piperacillin, H. influenzae 2",0.51
same,FIC,"peptide + Piperacillin, P. aeruginosa 7",0.25
same,FIC,"peptide + Piperacillin, P. aeruginosa 23",0.27
same,FIC,"peptide + Piperacillin, P. aeruginosa 28",0.14
same,FIC,"peptide + Piperacillin, P. aeruginosa 41",0.53
same,FIC,"peptide + Piperacillin, S. aureus 19 MRSA",0.16
same,FIC,"peptide + Piperacillin, S. aureus SB3MRSA",0.31
same,FIC,"peptide + Piperacillin, S. maltophilia 3",0.50
same,FIC,"peptide + Piperacillin, S. maltophilia 34",0.25
same,FIC,"peptide + Piperacillin, S. maltophilia 35",0.26
same,FIC,"peptide + Piperacillin, S. marcescens 1",0.50
same,FIC,"peptide + Tobramycin, S. epidermidis SE067",0.38
same,FIC,"peptide + Tobramycin, S. epidermidis SE068",0.27
same,FIC,"peptide + Tobramycin, S. maltophilia SMA029",0.05
same,FIC,"peptide + Tobramycin, S. maltophilia SMA030",0.05
same,FIC,"peptide + Vancomycin, E. faecalis EFS005",0.31
same,FIC,"peptide + Vancomycin, E. faecalis EFS012",0.07
same,FIC,"peptide + Vancomycin, E. faecalis EFS013",0.07
same,FIC,"peptide + Vancomycin, E. faecium EFM010",0.31
same,FIC,"peptide + Vancomycin, E. faecium EFM011",0.31
